Assays:
male Sprague Dawley rats [1] = assay: Tetradic encounter test; type: in vivo, rat; conditions: acute
Description: Example 130b was dissolved in 0.5% Natrosol and administered acutely p.o. (gavage) 40 minutes before behavioural testing. Example 130b was administered in doses of 0.3, 1.0 and 3.0 mg/kg in a volume of 5 ml/kg, each.
Chlordiazepoxide was dissolved in 0.9% NaCl and administered acutely i.p. 30 minutes before behavioural testing with a dose of 3 mg/kg in a volume of 1 ml/kg (test group TG 2, see below). The solution was prepared freshly every day.
(§1) 216 male Sprague Dawley rats. The animals were 6 weeks old at the start of the study. They were housed in groups of 4 animals (“acute animals”) or in single cages (“chronic animals”) at 12 h/12 h light/dark (start of the light phase at 2 a.m.), 20° C., 60% rH. Animals were provided by Elevage Janvier, France.
Animals were kept in group cages until compound administration. Each two animals derived from the same home cage and were treated the same way. During the time from compound administration to the beginning of the test, animals were kept in single cages for 40 minutes.
The tetradic encounter test was conducted according to the protocol of Wolffgramm (1990). Four rats were placed for 15 minutes in an open field arena of 1 m×1 m; all four animals of an encounter group were treated in the same way, they received either test compound, reference compound, or vehicle. Each two animals were from the same home cage. The open field was illuminated by dim red light (3-4 Lux). Rats were familiar with the open field and their encounter partners by means of three prior training sessions (no compound administration). Testing (compound administration) started at 2:20 p.m. (dark phase). All animals were marked individually by means of black symbols on their back. Behaviour was recorded on videotapes. Each animal was tested once.
Raw data were provided as videotapes and protocol sheets of application and test time. From the videotapes the trajectory of the animal's movement was tracked and coordinates and time stamps were continually noted in a data file. The resulting file was transferred to a computer program for further analysis.
The following parameters were calculated for the whole test phase (15 minutes): • Total distance travelled (m) • Use of available space (%) • Portion of time spent in the centre (%) • Portion of time spent in the corners (%) • Mean distance to the encounter mates (cm) • Distribution of spatial distance to the encounter mates • Dynamics of spatial distance to the encounter mates (cross-distance course) Social Behaviour
Raw data were provided as videotapes and protocol sheets of application and test time. From the videotapes the social behaviour of each rat was rated by an experienced ethologist using a list of predefined behavioural patterns. The observer was blind to the animal's treatment. The resulting file containing the time series of behavioural patterns was transferred to a computer program for further analysis.
The following parameters were calculated for the whole test phase (15 minutes): • Number of non-agonistic social acts (N) • Number of aggressive acts (N) • Number of defensive acts (N) • Time spent with non-agonistic social acts (%) • Time spent with aggressive acts (%) • Time spent with defensive acts (%) • Behavioural synchrony
To quantify inter-individual synchrony, coefficients of synchrony were calculated that base on rank correlation coefficients. For this purpose, the time series of behavioural patterns was subdivided into equidistant interval sections (here: 1 s intervals). To calculate synchrony coefficients, the user must define “pattern sets of interest”. Each set contained one or more behavioural patterns that were taken together for the analysis (e.g. “friendly contact” or “all kinds of social interaction”). […]

male Sprague Dawley rats [2] = assay: Circadian courses of activity, feeding and drinking behaviour; body weight, food and fluid consumption during chronic administration; type: in vivo, rat; conditions: vs vehicle
Description: Example 130b as hydrochloride salt was dissolved in tap water in concentrations of 0.03, 0.1 and 0.3 mg/ml. Assuming a daily fluid intake of approx. 30 ml per animal (animal's weight: approx. 300 g), these concentrations should result in doses of approx. 3, 10 and 30 mg/kg/day. The solutions were prepared freshly every day. During chronic administration, solution offer was limited to 40 ml per day for each animal.
Imipramine was dissolved 0.5% Natrosol and administered once daily i.p. for 8 days (test group TG 11, see below) with a dose of 15 mg/kg/day in a volume of 1 ml/kg.
as §1
During the 7 days lasting period of chronic compound administration, animals were kept singly. On the first day they were kept in single Macrolon home cages. On the next day they were transferred to activity monitoring cages and kept there for 3 days. For the following 3 days they returned to their home cages (single housing).
Animals received the test compound chronically via the drinking fluid. The reference compound Imipramine was given i.p. (one administration per day, one hour before the respective tests). Fluid supply was restricted to 40 ml per day for all test groups. On the first day of chronic test compound exposure, animals were kept singly in standard single home cages to enable an individual assessment of test compound intake. On the second day, animals were transferred to infrared monitoring cages for 3 days. Food and fluid offer were the same as in the home cage. Measuring rearing activity near fluid bottles and food grid enabled an assessment of the time structure of food and water (compound) consumption. Behavioural observation started one hour before the beginning of the dark phase (2 p.m.). After 22 hours, body weight, food and fluid consumption were measured. 2 hours later, the next recording started.
Raw data were provided as computer files accompanied by written protocol sheets. As the animals were still adapting to the environment and administration the time courses of the following parameters were calculated only for the last day of registration: • Food and fluid intake (time %) • Number of feeding and […] bouts • Meal pattern parameters reflecting e.g. the duration and recurrence of feeding and drinking bouts • Total distance travelled (cm/min) • Small movements (cm/min) • Distance travelled with rapid locomotion (cm/min) • Distance travelled with slow locomotion (cm/min) • Immobility (time %) • Use of available space (%) • Locomotor stereotypies (score, first hour of the dark phase only) • Rearing (time %) • Number of rearing acts (N) Feeding and Drinking Bouts and Bout-Related Analysis:
On the basis of high-resolution infrared beam recordings, feeding and drinking is identified by means of beam interruption in the upper frame near to the positions of food or water. Feeding or drinking acts are then defined as temporally contingent behavioural pattern separated from each other by intervals not longer than 0.5 seconds. Normally, several acts form a feeding or drinking bout. The intervals within a bout are definitely shorter than between subsequent bouts. A threshold interval can be set to distinguish between intra-bout and inter-bout intervals.
Stereotyped locomotion was assessed by means of statistical comparisons between the observed locomotor sequences (as described by the movement from one of the 4×4 subsquares to another) and a “random walk”. The comparison is performed at 5 different levels:
The coefficient of locomotor stereotypies (SC, in %) at each level has a value of SC=0 when there are no regularities within the movement pattern (random walk). […]

[3] = vs vehicle, Chlordiazepoxide 3 mg/kg i.p., Example 130b low and high dose (0.3 and 3.0 mg/kg p.o.)
[4] = vs vehicle, Example 130b high dose (3.0 mg/kg p.o.)
[5] = circadian registration, Imipramine 15 mg/kg/day i.p., Example 130b approx. 3, 10, 30 mg/kg/day
[6] = Imipramine 15 mg/kg/day i.p., Example 130b hydrochloride approx. 3, 10, 30 mg/kg/day via drinking fluid

Structure (SMILES): NCc1c(-c2ccc(Cl)cc2Cl)ncn1Cc1ccsc1 [Example 130b, (4-(2,4-dichlorophenyl)-1-((thiophen-3-yl)methyl)-1H-imidazol-5-yl)methanamine]
- locomotor activity (male Sprague Dawley rats [1]; tetradic encounter, Chlordiazepoxide 3 mg/kg i.p., Example 130b 0.3-3.0 mg/kg p.o.): altered locomotor activity
- inter-individual synchrony of behaviour (male Sprague Dawley rats [1]; vs vehicle, Chlordiazepoxide 3 mg/kg i.p., Example 130b 0.3, 1.0, 3.0 mg/kg p.o. (especially the high dose increased synchrony)): strong effects
- distance to the encounter mates (male Sprague Dawley rats [1]; [3]): significantly higher distance
- number of defensive acts (male Sprague Dawley rats [1]; [3]): statistically significant increase
- time spent in a distance of 75-100 cm to encounter mates (male Sprague Dawley rats [1]; vs vehicle, Chlordiazepoxide 3 mg/kg i.p., Example 130b low and medium dose (0.3 and 1.0 mg/kg p.o.)): higher amount
- time spent in a distance of 25-50 cm to encounter mates (male Sprague Dawley rats [1]; vs vehicle, Chlordiazepoxide 3 mg/kg i.p., Example 130b low dose (0.3 mg/kg p.o.)): significantly lower amount of time
- time spent with friendly (non-agonistic) social behaviour (male Sprague Dawley rats [1]; vs vehicle, Chlordiazepoxide 3 mg/kg i.p., Example 130b medium dose (1.0 mg/kg p.o.)): tended to increase
- time spent in a distance of 50-75 cm to encounter mates (male Sprague Dawley rats [1]; [4]): higher amount
- time spent in a distance of less than 25 cm to encounter mates (male Sprague Dawley rats [1]; [4]): significantly lower amount of time
- time spent in the centre of the open field (male Sprague Dawley rats [1]; [4]): significantly increased
- usage of available space (male Sprague Dawley rats [1]; [4]): significantly increased
- distance travelled during the first five minutes of the test (male Sprague Dawley rats [1]; vs vehicle, Example 130b low and high dose (0.3 and 3.0 mg/kg p.o.)): statistically significant increase
- time spent in a distance of more than 100 cm to encounter mates (male Sprague Dawley rats [1]; vs vehicle, Example 130b low dose (0.3 mg/kg p.o.)): higher amount
- cumulated number of drinking bouts (male Sprague Dawley rats [2]; 22 hours of measurement, Example 130b approx. 3, 10, 30 mg/kg/day): dose-dependently reached a lower total number
- horizontal and vertical (locomotor) activity (male Sprague Dawley rats [2]; [5]): no statistically significant effects
- time accessing food and water (fluid) (male Sprague Dawley rats [2]; [5]): did not differ
- locomotor stereotypies (stereotypy index) (male Sprague Dawley rats [2]; first hour of the dark phase, Imipramine: level 2, 3 and 4 stereotypies, Example 130b: usage of available space or stereotypy index): no statistically significant effects
- body weight (gain) (male Sprague Dawley rats [2]; [6]): not affected
- fluid intake (male Sprague Dawley rats [2]; [6]): dose-dependently led to a reduction
- food intake (male Sprague Dawley rats [2]; [6]): not affected
